Test results: patent US20160279263A1, “DRUG DELIVERY COMPOSITIONS AND METHODS TARGETING P-GLYCOPROTEIN” (CORNELL UNIVERSITY, priority 2012, published 2016)

Target: T1, P-gp (Homo sapiens, UniProt P08183)
T1 construct: expressed in transfected cells; host or cells: MDA-435/LCC6 MDR cells, with MDA-435/LCC6 WT as the P-gp-negative comparison
Experiment: FACS accumulation/efflux in MDA-435/LCC6 MDR cells compared with WT cells
Type: cell-based
From the text: Before tests were initiated, P-gp expression in both MDR and WT cells was confirmed by Western blot, which confirmed the expression of P-gp in the MDR cells and the lack of expression in WT cells. The protein band in the MDR cells was visible around the molecular weight of P-gp, 170 kDa, which correlates to the reported molecular weight of the protein.
No differences in P-gp function were observed. […] Statistics represent the significance differences in WT/MDR accumulation ratio at a p-value of <0.01.

T1 sequence (P08183 whole entry): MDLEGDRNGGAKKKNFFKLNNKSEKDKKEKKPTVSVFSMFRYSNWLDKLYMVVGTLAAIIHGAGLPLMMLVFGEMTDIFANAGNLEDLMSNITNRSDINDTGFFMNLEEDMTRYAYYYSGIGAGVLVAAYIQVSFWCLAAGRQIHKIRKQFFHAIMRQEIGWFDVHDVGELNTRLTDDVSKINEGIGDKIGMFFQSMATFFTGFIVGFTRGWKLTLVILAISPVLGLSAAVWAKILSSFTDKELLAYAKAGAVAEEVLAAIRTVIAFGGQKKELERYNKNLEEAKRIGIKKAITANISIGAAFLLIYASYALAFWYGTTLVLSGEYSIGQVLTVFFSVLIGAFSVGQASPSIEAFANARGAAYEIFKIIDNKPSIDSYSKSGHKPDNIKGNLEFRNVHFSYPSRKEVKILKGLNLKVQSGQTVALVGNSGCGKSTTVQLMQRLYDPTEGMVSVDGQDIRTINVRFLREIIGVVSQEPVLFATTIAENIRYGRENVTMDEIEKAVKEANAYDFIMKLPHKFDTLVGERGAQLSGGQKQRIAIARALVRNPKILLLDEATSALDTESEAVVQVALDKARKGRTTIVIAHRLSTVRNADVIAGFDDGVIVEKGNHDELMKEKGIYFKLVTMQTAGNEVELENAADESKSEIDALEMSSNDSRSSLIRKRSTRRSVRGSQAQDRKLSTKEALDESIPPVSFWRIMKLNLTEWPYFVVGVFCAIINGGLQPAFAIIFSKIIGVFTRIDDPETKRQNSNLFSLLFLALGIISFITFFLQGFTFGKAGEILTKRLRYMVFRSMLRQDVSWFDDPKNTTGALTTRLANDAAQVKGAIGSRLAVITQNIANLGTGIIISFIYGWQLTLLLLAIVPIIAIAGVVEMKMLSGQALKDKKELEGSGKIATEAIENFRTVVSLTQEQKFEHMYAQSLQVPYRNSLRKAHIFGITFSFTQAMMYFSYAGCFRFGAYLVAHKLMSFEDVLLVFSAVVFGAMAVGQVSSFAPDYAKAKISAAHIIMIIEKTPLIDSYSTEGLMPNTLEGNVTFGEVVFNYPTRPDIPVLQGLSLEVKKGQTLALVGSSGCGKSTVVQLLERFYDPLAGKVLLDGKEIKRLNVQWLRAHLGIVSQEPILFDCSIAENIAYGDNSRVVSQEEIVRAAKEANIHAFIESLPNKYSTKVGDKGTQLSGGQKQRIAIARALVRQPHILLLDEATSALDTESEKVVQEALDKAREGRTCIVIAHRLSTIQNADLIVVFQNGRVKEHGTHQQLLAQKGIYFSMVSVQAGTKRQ

Substance: Rhodamine 123 [free Rho123]
- accumulation in MDR cells at 4° C. (4° C. relative to 37° C.): increase
- WT to MDR accumulation ratio with verapamil (5, 25, 50, 75 and 100 μM verapamil, mode fluorescence): increase in accumulation ratio with increasing verapamil concentration
